Laboratory results as given in patent publication US10327446B2, “Naphthyl- or isoquinolinyl-substituted isothiazoline compounds” (BOEHRINGER INGELHEIM ANIMAL HEALTH USA INC., priority 2013, dated 2019).

Experiments:
[1] = tested on: Diamond Back Moth (Plutella xylostella); assay: Diamond back moth leaf-dip test; format: in vivo; conditions: cabbage leaves dipped, 3rd instar larvae, 72 hours after treatment, read-out: mortality in comparison with untreated controls
Procedure: B.1 Diamond Back Moth (Plutella xylostella)
The active compound was dissolved at the desired concentration in a mixture of 1:1 (vol:vol) distilled water:aceteone. Surfactant (Kinetic HV) was added at a rate of 0.01% (vol/vol). The test solution was prepared at the day of use.
Leaves of cabbage were dipped in test solution and air-dried. Treated leaves were placed in petri dishes lined with moist filter paper and inoculated with ten 3rd instar larvae. Mortality was recorded 72 hours after treatment. Feeding damages were also recorded using a scale of 0-100%.

[2] = tested on: Green Peach Aphid (Myzus persicae); assay: Green peach aphid systemic test on artificial diet in microtiter plates; format: in vivo; conditions: 72 h, adult aphids on treated artificial diet, 3 days, read-out: mortality in comparison with untreated controls
From the text: B.2 Green Peach Aphid (Myzus persicae)
For evaluating control of green peach aphid (Myzus persicae) through systemic means the test unit consisted of 96-well-microtiter plates containing liquid artificial diet under an artificial membrane.
The compounds were formulated using a solution containing 75% v/v water and 25% v/v DMSO. Different concentrations of formulated compounds were pipetted into the aphid diet, using a custom built pipetter, at two replications.
After application, 5-8 adult aphids were placed on the artificial membrane inside the microtiter plate wells. The aphids were then allowed to suck on the treated aphid diet and incubated at about 23±1° C. and about 50±5% relative humidity for 3 days. Aphid mortality and fecundity was then visually assessed.

[3] = tested on: Tobacco Budworm (Heliothis virescens); assay: Tobacco budworm microtiter plate diet test; format: in vivo; conditions: 120 h, sprayed onto insect diet with eggs, egg and larval mortality after 5 days, read-out: mortality in comparison with untreated controls
Procedure: B.5 Tobacco Budworm (Heliothis virescens)
For evaluating control of tobacco budworm (Heliothis virescens) the test unit consisted of 96-well-microtiter plates containing an insect diet and 15-25 H. virescens eggs. The compounds were formulated using a solution containing 75% v/v water and 25% v/v DMSO. Different concentrations of formulated compounds were sprayed onto the insect diet at 10 μl, using a custom built micro atomizer, at two replications.
After application, microtiter plates were incubated at about 28±1° C. and about 80±5% relative humidity for 5 days. Egg and larval mortality was then visually assessed.

[4] = tested on: Boll Weevil (Anthonomus grandis); assay: Boll weevil microtiter plate diet test; format: in vivo; conditions: 120 h, sprayed onto insect diet with eggs, egg and larval mortality after 5 days, read-out: mortality in comparison with untreated controls
Procedure: B.6 Boll Weevil (Anthonomus grandis)
For evaluating control of boll weevil (Anthonomus grandis) the test unit consisted of 96-well-microtiter plates containing an insect diet and 5-10 A. grandis eggs.
The compounds were formulated using a solution containing 75% v/v water and 25% v/v DMSO. Different concentrations of formulated compounds were sprayed onto the insect diet at 5 μl, using a custom built micro atomizer, at two replications.
After application, microtiter plates were incubated at about 25±1° C. and about 75±5% relative humidity for 5 days. Egg and larval mortality was then visually assessed.

[5] = tested on: Mediterranean Fruitfly (Ceratitis capitata); assay: Mediterranean fruitfly microtiter plate diet test; conditions: 120 h, read-out: mortality in comparison with untreated controls
[6] = tested on: Vetch Aphid (Megoura viciae); assay: Vetch aphid broad bean leaf disk test; format: in vivo; conditions: foliar, 120 h, sprayed onto broad bean leaf disks, adult aphids, 5 days, read-out: mortality in comparison with untreated controls
Procedure: B.4 Vetch Aphid (Megoura viciae)
For evaluating control of vetch aphid (Megoura viciae) through contact or systemic means the test unit consisted of 24-well-microtiter plates containing broad bean leaf disks.
The compounds were formulated using a solution containing 75% v/v water and 25% v/v DMSO. Different concentrations of formulated compounds were sprayed onto the leaf disks at 2.5 μl, using a custom built micro atomizer, at two replications.
After application, the leaf disks were air-dried and 5-8 adult aphids placed on the leaf disks inside the microtiter plate wells. The aphids were then allowed to suck on the treated leaf disks and incubated at about 23±1° C. and about 50±5% relative humidity for 5 days. Aphid mortality and fecundity was then visually assessed.

[7] = tested on: Orchid Thrips (Dichromothrips Corbetti); assay: Orchid thrips floral-immersion test; format: in vivo; conditions: orchid petals dipped, adult thrips, 72 hours after treatment, read-out: mortality in comparison with untreated controls
Procedure: B.7 Orchid Thrips (Dichromothrips Corbetti)
Dichromothrips corbetti adults used for bioassay were obtained from a colony maintained continuously under laboratory conditions. For testing purposes, the test compound is diluted in a 1:1 mixture of acetone:water (vol:vol), plus Kinetic HV at a rate of 0.01% v/v.
Thrips potency of each compound was evaluated by using a floral-immersion technique. All petals of individual, intact orchid flowers were dipped into treatment solution and allowed to dry in Petri dishes. Treated petals were placed into individual resealable plastic along with about 20 adult thrips. All test arenas were held under continuous light and a temperature of about 28° C. for duration of the assay. After 3 days, the numbers of live thrips were counted on each petal. The percent mortality was recorded 72 hours after treatment.

O=C(NCC(F)(F)F)N/N=C/c1ccc(C2=NSC(c3cc(Cl)c(Cl)c(Cl)c3)(C(F)(F)F)C2)c2ccccc12 (stereo not drawn) [Compound 1-1, 1-[(E)-[4-[5-(3,4,5-trichlorophenyl)-5-(trifluoromethyl)-4H-isothiazol-3-yl]-1-naphthyl]methyleneamino]-3-(2,2,2-trifluoroethyl)urea]
≥ 75%: mortality at 500 ppm [1] | mortality at 2500 ppm [2] | mortality at 2500 ppm [3] | mortality at 2500 ppm [4] | mortality at 2500 ppm [5]

O=C(NCC1CC(F)(F)C1)c1ccc(C2=NSC(c3cc(Cl)c(Cl)c(Cl)c3)(C(F)(F)F)C2)c2ccccc12 (stereo not drawn) [Compound 2-1, N-[(3,3-difluorocyclobutyl)methyl]-4-[5-(3,4,5-trichlorophenyl)-5-(trifluoromethyl)-4H-isothiazol-3-yl]naphthalene-1-carboxamide]
≥ 75%: mortality at 500 ppm [1] | mortality at 2500 ppm [2] | mortality at 2500 ppm [6] | mortality at 2500 ppm [3] | mortality at 2500 ppm [4] | mortality at 500 ppm [7] | mortality at 2500 ppm [5]
